Measured values reported in patent US9309199B2, “Inhibitors of catechol O-methyl transferase and their use in the treatment of psychotic disorders” (Merck Sharp & Dohme Corp., priority 2010, dated 2016).

The compounds below were run against T1, MB-COMT (Homo sapiens, UniProt P21964) (assay: COMT inhibition, esculetin fluorescence or fluorescence polarization assay (MB-COMT)). Conditions: purified human COMT Val158 variant, membrane-bound.
T1 construct: 6xHis or 10xHis (C)
T1 sequence (P21964 1-271): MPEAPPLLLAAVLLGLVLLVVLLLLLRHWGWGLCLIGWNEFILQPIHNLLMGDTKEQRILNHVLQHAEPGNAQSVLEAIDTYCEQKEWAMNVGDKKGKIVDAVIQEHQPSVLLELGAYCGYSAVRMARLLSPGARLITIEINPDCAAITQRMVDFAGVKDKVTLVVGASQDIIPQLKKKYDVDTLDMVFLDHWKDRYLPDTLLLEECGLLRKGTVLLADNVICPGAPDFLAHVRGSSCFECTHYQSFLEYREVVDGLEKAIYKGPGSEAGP
Format: biochemical
Description: The activity of the compounds in accordance with the present invention as COMT inhibitors may be readily determined without undue experimentation using a fluorescence or fluorescence polarization (FP) methodology that is well known in the art (Kurkela M et al., Anal Biochem (331) 2004, 198-200 and Graves, T L et al., Anal Biochem (373) 2008, 296-306).
The fluorescence assay was based on methylation of a substrate (6,7-dihydroxycoumarin or ‘esculetin’) by COMT to produce a highly fluorescent product (7-hydroxy-6-methoxycoumarin or scopoletin'). […] A 10 mM compound stock in DMSO was used to prepare 10 point 3-fold dilution series and 1 uL of appropriate dilution was plated into assay wells (black 96 well round bottom polystyrene plates from Costar; catalog #3792). […] The formation of product (scopoletin) was monitored over time by fluorescence (excitation 340 nm, emission 460 nm, no lag, 100 μs integration time, 5 flashes, top read) using a Tecan Safire^2 plate reader.

| IC50 | Compound |
| --- | --- |
| 31 nM | O=c1[nH]cc(-c2ccc(Cl)c(C(F)(F)F)c2)cc1O [Compound #2, 5-[4-chloro-3-(trifluoromethyl)-phenyl]-3-hydroxypyridin-2(1H)-one] |
| 392 nM | Cn1cc(-c2ccc(Cl)cc2Cl)cc(O)c1=O [Example 1, 5-(2,4-Dichloro-phenyl)-3-hydroxy-1-methyl-1H-pyridin-2-one] |
| 197 nM | N#Cc1cccc(-c2c[nH]c(=O)c(O)c2)c1 [Compound #8, 3-(5-hydroxy-6-oxo-1,6-dihydropyridin-3-yl)benzonitrile] |
| 118 nM | Cn1cc(-c2cccc(-c3ccccc3)c2)cc(O)c1=O [Example 4, 5-Biphenyl-3-yl-3-hydroxy-1-methylpyridin-2(1H)-one] |
| 179 nM | Cn1cc(-c2ccc3ccccc3c2)cc(O)c1=O [Compound #1, 3-hydroxy-1-methyl-5-naphthalen-2-ylpyridin-2(1H)-one] |
